Measured values published in US8367838B2, “Amines or amino alcohols as GLYT1 inhibitors” (Hoffmann-La Roche Inc., priority 2009, dated 2013).
Counter-ions that a name gives are not always drawn.

Biological target: T1, mGlyT-1b (Mus musculus, UniProt P28571)
T1 construct: host or cells: Flp-in-CHO
T1 sequence (P28571 1-651 isoform P28571-2): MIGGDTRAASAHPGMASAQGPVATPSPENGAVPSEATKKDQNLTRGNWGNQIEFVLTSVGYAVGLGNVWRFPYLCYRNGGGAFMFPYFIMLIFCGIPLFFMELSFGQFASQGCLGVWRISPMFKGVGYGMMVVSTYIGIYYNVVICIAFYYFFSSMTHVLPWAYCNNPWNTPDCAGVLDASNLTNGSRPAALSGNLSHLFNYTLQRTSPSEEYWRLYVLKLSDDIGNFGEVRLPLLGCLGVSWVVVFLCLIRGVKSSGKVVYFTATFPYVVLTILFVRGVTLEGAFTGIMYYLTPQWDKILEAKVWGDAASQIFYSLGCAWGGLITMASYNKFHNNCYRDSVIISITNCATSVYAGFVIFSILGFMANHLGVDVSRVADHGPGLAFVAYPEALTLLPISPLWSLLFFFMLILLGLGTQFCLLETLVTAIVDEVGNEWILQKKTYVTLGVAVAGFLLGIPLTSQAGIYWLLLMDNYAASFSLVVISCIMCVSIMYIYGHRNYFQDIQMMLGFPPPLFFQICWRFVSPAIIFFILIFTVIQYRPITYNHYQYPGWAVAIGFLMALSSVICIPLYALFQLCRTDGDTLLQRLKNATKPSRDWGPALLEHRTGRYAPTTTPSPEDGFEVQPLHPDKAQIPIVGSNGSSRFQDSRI
Assay: Glycine uptake inhibition assay (mGlyT-1b), [3H]-glycine uptake in transfected Flp-in-CHO cells
Type: cell-based
Conditions: Flp-in-CHO cells transfected with mGlyT-1b cDNA; [3H]-glycine 60 nM and 25 μM non-radioactive glycine; 20 min preincubation at 22° C.; read-out: IC50 (μM) at GlyT-1; Ic50 (hglyt1b)
Description: Nutrient mixture F-12 (Gibco Life-technologies), fetal bovine serum (FBS) 5%, (Gibco life technologies), Penicillin/Streptomycin 1% (Gibco life technologies), Hygromycin 0.6 mg/ml (Gibco life technologies), Glutamine 1 mM Gibco life technologies).
150 mM NaCl, 10 mM Hepes-Tris, pH 7.4, 1 mM CaCl2, 2.5 mM KCl, 2.5 mM MgSO4, 10 mM (+) D-glucose. Flp-in™-CHO (Invitrogen Cat n° R758-07) cells stably transfected with mGlyT1b cDNA.
Glycine Uptake Inhibition Assay (mGlyT-1b)
On day 1 mammalian cells, (Flp-in™-CHO), transfected with mGlyT-1b cDNA, were plated at the density of 40,000 cells/well in complete F-12 medium, without hygromycin in 96-well culture plates. On day 2, the medium was aspirated and the cells were washed twice with uptake buffer (UB). The cells were then incubated for 20 min at 22° C. with either (i) no potential competitor, (ii) 10 mM non-radioactive glycine, (iii) a concentration of a potential inhibitor. A range of concentrations of the potential inhibitor was used to generate data for calculating the concentration of inhibitor resulting in 50% of the effect (e.g. IC50, the concentration of the competitor inhibiting glycine uptake of 50%). A solution was then immediately added containing [^3H]-glycine 60 nM (11-16 Ci/mmol) and 25 μM non-radioactive glycine. The plates were incubated with gentle shaking and the reaction was stopped by aspiration of the mixture and washing (three times) with ice-cold UB. The cells were lysed with scintillation liquid, shaken 3 hours and the radioactivity in the cells was counted using a scintillation counter.

SMILES	IC50
N[C@@H](c1ccc(Cl)c(Cl)c1)[C@H](O)c1ccc(OCC2CCCO2)cc1F (mixture of isomers) [Example 28, rac-erythro-[2-Amino-2-(3,4-dichloro-phenyl)-1-[2-fluoro-4-(tetrahydro-furan-2-ylmethoxy)-phenyl]-ethanol, hydrochloride salt]	0.33 µM
N[C@@H](c1ccc(Cl)c(Cl)c1)[C@H](O)c1ccc(OCC(O)CCCl)cc1F (mixture of isomers) [Example 29, rac-erythro-[1-[4-[(rac)-2-Amino-2-(3,4-dichloro-phenyl)-1-hydroxy-ethyl]-3-fluoro-phenoxy]-4-chloro-butan-2-ol hydrochloride]	0.462 µM
Cc1cc(OC(C)C)ncc1[C@@H](O)[C@@H](N)c1ccc(Cl)c(Cl)c1 (racemic) [Example 30, rac-erythro-[2-Amino-2-(3,4-dichloro-phenyl)-1-(6-isopropoxy-4-methyl-pyridin-3-yl)-ethanoldihydrochloride]	0.577 µM
Cc1cc([C@@H](O)[C@@H](N)c2ccc(Cl)c(Cl)c2)cnc1OC1CCOC1 (mixture of isomers) [Example 31, rac-erythro-[(rac)-2-Amino-2-(3,4-dichloro-phenyl)-1-[5-methyl-6-(tetrahydro-furan-3-yloxy)-pyridin-3-yl]-ethanoldihydrochloride]	0.646 µM
CC(C)Oc1ccc([C@@H](O)[C@@H](N)c2ccc(Cl)c(Cl)c2)nc1 (racemic) [Example 32, rac-erythro-[2-Amino-2-(3,4-dichloro-phenyl)-1-(5-isopropoxy-pyridin-2-yl)-ethanoldihydrochloride]	0.842 µM
N[C@@H](c1ccc(Cl)c(Cl)c1)[C@H](O)c1ccc(OC2CCOCC2)cc1F (racemic) [Example 33, rac-erythro-[2-Amino-2-(3,4-dichloro-phenyl)-1-[2-fluoro-4-(tetrahydro-pyran-4-yloxy)-phenyl]-ethanol hydrochloride]	0.036 µM
CC1(COc2ccc([C@@H](O)[C@@H](N)c3ccc(Cl)c(Cl)c3)c(F)c2)COC1 (racemic) [Example 34, rac-erythro-[2-Amino-2-(3,4-dichloro-phenyl)-1-[2-fluoro-4-(3-methyl-oxetan-3-ylmethoxy)-phenyl]-ethanol]	0.023 µM
C[Si](C)(C)c1ccc([C@@H](O)[C@@H](N)c2ccc(Cl)c(Cl)c2)cc1 (racemic) [Example 35, rac-erythro-[2-Amino-2-(3,4-dichloro-phenyl)-1-(4-trimethylsilanyl-phenyl)-ethanol trifluoroacetate]	0.298 µM
C[C@@](O)(c1ccc(-c2ccccc2)cc1)[C@@H](N)c1ccc(Cl)cc1 (racemic) [Example 36, rac-erythro-[1-Amino-2-biphenyl-4-yl-1-(4-chloro-phenyl)-propan-2-ol trifluoroacetate]	0.3 µM
CC(C)(C)c1ccc([C@@H](O)[C@@H](N)c2ccc(Cl)c(Cl)c2)cc1 (racemic) [Example 37, rac-erythro-[2-Amino-1-(4-tert-butyl-phenyl)-2-(3,4-dichloro-phenyl)-ethanol trifluoroacetate]	0.876 µM
N[C@@H](c1ccc(Cl)c(Cl)c1)[C@H](O)c1ccc(OC(F)(F)C(F)F)cc1 (racemic) [Example 38, rac-erythro-[2-Amino-2-(3,4-dichlorophenyl)-1-[4-(1,1,2,2-tetrafluoro-ethoxy)-phenyl]-ethanol]	0.176 µM
CN[C@@H](c1ccc(Cl)c(Cl)c1)[C@H](O)c1ccc(-c2cncc(F)c2)cc1 (racemic) [Example 39, rac-erythro-[2-(3,4-Dichloro-phenyl)-1-[4-(5-fluoro-pyridin-3-yl)-phenyl]-2-methylamino-ethanol hydrochloride]	0.208 µM
N[C@@H](c1ccc(Cl)c(Cl)c1)[C@H](O)c1ccc(OC2CCOCC2)cc1 (racemic) [Example 40, rac-erythro-[2-Amino-2-(3,4-dichloro-phenyl)-1-[4-(tetrahydro-pyran-4-yloxy)-phenyl]-ethanol]	0.052 µM
N[C@@H](c1ccc(Cl)c(Cl)c1)[C@H](O)c1ccc(OC2CCOC2)cc1 (mixture of isomers) [Example 42, rac-erythro-[rac-2-Amino-2-(3,4-dichloro-phenyl)-1-[4-(tetrahydro-furan-3-yloxy)-phenyl]-ethanol]	0.052 µM
CC(CO)(CCl)COc1ccc([C@@H](O)[C@@H](N)c2ccc(Cl)c(Cl)c2)cc1 (mixture of isomers) [Example 43, rac-erythro-[2-Amino-2-(3,4-dichloro-phenyl)-1-hydroxy-ethyl]-phenoxy]-2-chloromethyl-2-methyl-propan-1-ol hydrochloride]	0.053 µM
N[C@@H](c1ccc(Cl)c(Cl)c1)[C@H](O)c1ccc(OC2CCS(=O)(=O)CC2)cc1 (racemic) [Example 44, rac-erythro-[2-Amino-2-(3,4-dichloro-phenyl)-1-[4-(1,1-dioxo-hexahydro-1λ^6-thio-pyran-4-yloxy)-phenyl]-ethanol]	0.088 µM
N[C@@H](c1ccc(Cl)c(Cl)c1)[C@H](O)c1ccc(OCC2CCOCC2)cc1 (racemic) [Example 45, rac-erythro-[2-Amino-2-(3,4-dichloro-phenyl)-1-[4-(tetrahydro-pyran-4-ylmethoxy)-phenyl]-ethanol]	0.147 µM
CC(=O)N1CCC(Oc2ccc([C@@H](O)[C@@H](N)c3ccc(Cl)c(Cl)c3)cc2)CC1 (racemic) [Example 46, rac-erythro-[1-(4-[4-[2-Amino-2-(3,4-dichloro-phenyl)-1-hydroxy-ethyl]-phenoxy]-piperidin-1-yl)-ethanone]	0.262 µM
N[C@@H](c1ccc(Cl)c(Cl)c1)[C@H](O)c1ccc(OCC(F)(F)F)cc1 (racemic) [Example 47, rac-erythro-[2-Amino-2-(3,4-dichloro-phenyl)-1-[4-(2,2,2-trifluoro-ethoxy)-phenyl]-ethanol]	0.266 µM
N[C@@H](c1ccc(Cl)cc1)[C@H](O)c1ccc(OC2CCCC2)cc1 (racemic) [Example 48, rac-erythro-[2-Amino-2-(4-chloro-phenyl)-1-(4-cyclopentyloxy-phenyl)-ethanol hydrochloride]	0.433 µM
N[C@@H](c1ccc(Cl)c(Cl)c1)[C@H](O)c1ccc(OCC2CC2)cc1 (racemic) [Example 49, rac-erythro-[2-Amino-1-(4-cyclopropylmethoxy-phenyl)-2-(3,4-dichloro-phenyl)-ethanol]	0.533 µM
CC(C)COc1ccc([C@@H](O)[C@@H](N)c2ccc(Cl)c(Cl)c2)cc1 (racemic) [Example 50, rac-erythro-2-Amino-2-(3,4-dichloro-phenyl)-1-(4-isobutoxy-phenyl)-ethanol]	0.549 µM
CCC(C)Oc1ccc([C@@H](O)[C@@H](N)c2ccc(Cl)c(Cl)c2)cc1 (mixture of isomers) [Example 51, rac-erythro-2-Amino-1-(4-sec-butoxy-phenyl)-2-(3,4-dichloro-phenyl)-ethanol]	0.72 µM
N[C@@H](c1ccc(Cl)c(Cl)c1)[C@H](O)c1ccc(OCCC(F)(F)F)cc1 (racemic) [Example 52, rac-erythro-2-Amino-2-(3,4-dichloro-phenyl)-1-[4-(3,3,3-trifluoro-propoxy)-phenyl]-ethanol]	0.772 µM
N[C@@H](c1ccc(Cl)cc1)[C@H](O)c1ccc(OC2CCCCC2)cc1 (racemic) [Example 53, rac-erythro-2-Amino-2-(4-chloro-phenyl)-1-(4-cyclohexyloxy-phenyl)-ethanol]	1.03 µM
